Assay results as given in article PMC8954540, “A New Class of PSMA-617-Based Hybrid Molecules for Preoperative Imaging and Intraoperative Fluorescence Navigation of Prostate Cancer” (Pharmaceuticals, 2022).
Starred links: 1 amine or outer side, 2 acyl side, 3 side chain; linkers in the order of their positions; H or OH if unused. Non-standard residues stand in square brackets, D forms with d. Residues, ends and D or L forms follow the SMILES beside them. *: point of attachment. FITC = O=C1OC2(c3ccc(O)cc3Oc3cc(O)ccc32)c2ccc(NC(=S)*)cc21; DOTA = O=C(O)CN1CCN(CC(=O)O)CCN(CC(=O)*)CCN(CC(=O)O)CC1; X2 = O=C(O)CCC(NC(=O)NC(CCCCN*)C(=O)O)C(=O)O; 2Nal = N[CH](Cc1ccc2ccccc2c1)C(=O)O; X1 = O=C(C1CCC(CN[*:1])CC1)[*:2]

Tests used:
[1] = set-up: method as in PMID 16194449; conditions: free dye; cited from earlier work
[2] = Lipophilicity, logD at pH 7.4 in n-octanol/PBS; assay type: physicochemical; conditions: 68Ga-labeled ligand
Procedure: The synthesis was performed according to previously published protocols. Details on synthesis and analytical data of the compounds are provided in the Supplementary Materials (Compound Synthesis and Analytical Characterization). […] Using 30% NaOH (Sigma-Aldrich, Darmstadt, Germany) and 10% NaOH (Sigma-Aldrich, Darmstadt, Germany), the pH was adjusted to 3.8. The reaction mixture was incubated at 98 °C for 5–10 min. The radiochemical yield was analyzed by reversed-phase high-performance liquid chromatography (RP-HPLC) or reversed-phase thin-layer chromatography (RP-TLC, 60 RP-18 F254S, Sigma-Aldrich, Darmstadt, Germany) with 0.5 M ammonium acetate/methanol (1:1) as the mobile phase. The lipophilicity of the ^68Ga-labeled compounds was determined using the 2-phase system n-octanol and PBS.

LNCaP cells [3] = test: Specific cell surface binding and internalization of 68Ga-labeled compounds; assay type: cell-based; conditions: 68Ga-labeled compounds; blockage with 500 µmol/L 2-PMPA; mean ± SD, n = 3
Procedure: (§1) LNCaP cells (CRL-1740; ATCC; PSMA-positive) and PC-3 cells (CRL-1435; ATCC; PSMA-negative) were cultured in RPMI medium (Thermo Fisher Scientific, Waltham, MA, USA) supplemented with 10% fetal calf serum and 2 mmol/L L-glutamine (all from (Thermo Fisher Scientific, Waltham, MA, USA) ) at 37 °C in humidified air with 5% CO2. Cells were harvested using trypsin-ethylenediaminetetraacetic acid (trypsin-EDTA; 0.25% trypsin, 0.02% EDTA, Invitrogen, Waltham, MA, USA). Cell line authentication was regularly performed. Binding affinities and internalization profiles of the ^68Ga-labeled compounds were determined in competitive cell binding assays and internalization experiments as described previously.

PSMA = molecular target: T1, PSMA (Homo sapiens, UniProt Q04609); test: Competitive cell binding assay (radioligand 68Ga-PSMA-10); conditions: free ligands, mean ± SD, n = 3; for Ki: Ki=IC50/(1+cradioligand/Kd); for IC50: radioligand 68Ga-PSMA-10, 0.75 nmol/L
T1 construct: LNCaP cells (CRL-1740; ATCC; PSMA-positive); host or cells: LNCaP cells
T1 sequence (Q04609 whole entry): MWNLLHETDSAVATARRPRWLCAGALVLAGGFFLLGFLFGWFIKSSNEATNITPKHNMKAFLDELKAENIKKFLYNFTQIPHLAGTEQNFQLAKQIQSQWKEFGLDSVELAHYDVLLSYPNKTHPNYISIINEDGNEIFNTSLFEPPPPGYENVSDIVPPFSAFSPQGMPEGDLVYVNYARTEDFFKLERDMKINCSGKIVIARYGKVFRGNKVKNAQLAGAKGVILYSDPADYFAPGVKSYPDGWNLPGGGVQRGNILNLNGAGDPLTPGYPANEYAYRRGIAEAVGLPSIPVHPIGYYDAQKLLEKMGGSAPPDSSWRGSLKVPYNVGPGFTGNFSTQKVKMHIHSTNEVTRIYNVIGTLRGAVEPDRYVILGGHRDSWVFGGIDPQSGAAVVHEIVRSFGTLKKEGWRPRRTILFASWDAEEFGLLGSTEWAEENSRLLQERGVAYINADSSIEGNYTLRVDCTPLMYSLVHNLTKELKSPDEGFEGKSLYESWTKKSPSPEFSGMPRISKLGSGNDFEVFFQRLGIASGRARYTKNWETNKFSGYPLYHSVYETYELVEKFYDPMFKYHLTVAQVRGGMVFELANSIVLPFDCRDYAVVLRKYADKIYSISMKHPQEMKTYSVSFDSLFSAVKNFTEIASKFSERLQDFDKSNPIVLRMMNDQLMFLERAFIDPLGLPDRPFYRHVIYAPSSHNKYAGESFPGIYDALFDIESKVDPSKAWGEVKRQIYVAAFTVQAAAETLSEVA
Procedure: as §1

[4] = set-up: method as in PMID 25883127; conditions: n-octanol/PBS; cited from earlier work
LNCaP cells [5] = tested on: LNCaP cells; set-up: method as in PMID 26878194; conditions: cited from earlier work
[6] = tested on: LNCaP-tumor bearing BALB/c nu/nu mice; conditions: cited from earlier work; for tumor enhancement after dye conjugation: compared with PSMA-927
[7] = set-up: method as in PMID 34161051; conditions: 831 patients; cited from earlier work
[8] = set-up: method as in PMID 29752180; conditions: twelve weeks after the first dose; cited from earlier work

Molecule	Lipophilicity logDpH 7.4 n-octanol/PBS [2]	Ki (PSMA) [nM]	IC50 (PSMA) [nM]	Specifically Cell Surface Bound (LNCaP cells [3]) [%AR/10^5 Cells]	Specifically Internalized (LNCaP cells [3]) [%AR/10^5 Cells]	other results
CC1(C)C(=CC=C2CCCC(C=CC3=[N+](CCCCCC(=O)[O-])c4ccc(S(=O)(=O)[O-])cc4C3(C)C)=C2Oc2ccc(S(=O)(=O)[O-])cc2)N(CCCCS(=O)(=O)[O-])c2ccc(S(=O)(=O)[O-])cc21.[Na+].[Na+].[Na+].[Na+] [IRDye800CW]	–	–	–	–	–	absorption maximum [1]: 775 nm; emission maximum [1]: 796 nm
O=C([O-])CN1CCN(CC(=O)[O-])CCN(CC(=O)NCC2CCC(C(=O)NC(Cc3ccc4ccccc4c3)C(=O)NCCCCC(NC(=O)NC(CCC(=O)O)C(=O)O)C(=O)O)CC2)CCN(CC(=O)[O-])CC1.[68Ga+3] (stereo not drawn) [[^68Ga]Ga-PSMA-617]	–	–	–	–	–	logDpH 7.4 [4]: –2.00; cell surface binding (LNCaP cells [5]): 11.40 ± 6.60 %ID/10^5 LNCaP cells; specific internalization (LNCaP cells [5]): 16.17 ± 3.66 %ID/10^5 LNCaP cells; tumor uptake ([6]; 1 h p.i.): 8.47 ± 4.09 % ID/g
O=C([O-])CN1CCN(CC(=O)[O-])CCN(CC(=O)NCC2CCC(C(=O)NC(Cc3ccc4ccccc4c3)C(=O)NCCCCC(NC(=O)NC(CCC(=O)O)C(=O)O)C(=O)O)CC2)CCN(CC(=O)[O-])CC1.[177Lu+3] (stereo not drawn) [[^177Lu]Lu-PSMA-617]	–	–	–	–	–	overall survival [7]: significantly improves overall survival; tolerability of the treatment regimen [7]: very well-tolerated; patients with PSA decline greater than 50% [8]: half of the patients; patients with PSA decline greater than 80% [8]: 27%
[^68Ga]Ga-Glu-urea-Lys-(HE)3-HBED-CC-IRDye800CW	–	–	–	–	–	tumor enhancement after dye conjugation [6]: significantly higher tumor enhancement
[^68Ga]Ga-Glu-urea-Lys-HBED-CC-IRDye800CW	–	–	–	–	–	tumor enhancement after dye conjugation [6]: significantly higher tumor enhancement

Now from value to molecule, other results behind:

Lipophilicity logDpH 7.4 n-octanol/PBS [2]	Ki (PSMA) [nM]	IC50 (PSMA) [nM]	Molecule	Specifically Cell Surface Bound (LNCaP cells [3]) [%AR/10^5 Cells]	Specifically Internalized (LNCaP cells [3]) [%AR/10^5 Cells]	other results
-2.36 ± 0.03	4.03 ± 0.95	4.83 ± 0.93	O=C(O)CCC(NC(=O)NC(CCCCNC(=O)C(Cc1ccc2ccccc2c1)NC(=O)C1CCC(CNC(=O)C(CCCCNC(=S)Nc2ccc3c(c2)C(=O)OC32c3ccc(O)cc3Oc3cc(O)ccc32)NC(=O)CN2CCN(CC(=O)O)CCN(CC(=O)O)CCN(CC(=O)O)CC2)CC1)C(=O)O)C(=O)O (stereo not drawn) [PSMA-921, Glu-urea-Lys-2-Nal-Chx-Lys(Fluorescein)-DOTA]	7.06 ± 3.32	15.82 ± 6.18	–
-2.07 ± 0.06	5.78 ± 1.32	6.93 ± 1.29	O=C(O)CCC(NC(=O)NC(CCCCNC(=O)C(Cc1ccc2ccccc2c1)NC(=O)C1CCC(CNC(=O)C(CCCCNC(=S)Nc2ccc3c(c2)C(=O)OC32c3ccc(O)cc3Oc3cc(O)ccc32)NC(=O)C(CCC(=O)O)NC(=O)CN2CCN(CC(=O)O)CCN(CC(=O)O)CCN(CC(=O)O)CC2)CC1)C(=O)O)C(=O)O (stereo not drawn) [PSMA-922, Glu-urea-Lys-2-Nal-Chx-Lys(Fluorescein)-E1-DOTA]	6.33 ± 1.53	13.74 ± 5.75	–
-2.16 ± 0.04	5.95 ± 1.99	7.14 ± 1.95	O=C(O)CCC(NC(=O)NC(CCCCNC(=O)C(Cc1ccc2ccccc2c1)NC(=O)C1CCC(CNC(=O)C(CCCCNC(=S)Nc2ccc3c(c2)C(=O)OC32c3ccc(O)cc3Oc3cc(O)ccc32)NC(=O)C(CCC(=O)O)NC(=O)C(CCC(=O)O)NC(=O)CN2CCN(CC(=O)O)CCN(CC(=O)O)CCN(CC(=O)O)CC2)CC1)C(=O)O)C(=O)O (stereo not drawn) [PSMA-923, Glu-urea-Lys-2-Nal-Chx-Lys(Fluorescein)-E2-DOTA] ({DOTA}-EEK(FITC)[X1][2Nal]-X2; configuration not given here)	9.82 ± 0.67	21.55 ± 9.24	–
-2.38 ± 0.07	3.87 ± 1.76	4.64 ± 1.23	O=C(O)CCC(NC(=O)NC(CCCCNC(=O)C(Cc1ccc2ccccc2c1)NC(=O)C1CCC(CNC(=O)C(CCCCNC(=O)CN2CCN(CC(=O)O)CCN(CC(=O)O)CCN(CC(=O)O)CC2)NC(=S)Nc2ccc3c(c2)C(=O)OC32c3ccc(O)cc3Oc3cc(O)ccc32)CC1)C(=O)O)C(=O)O (stereo not drawn) [PSMA-924, Glu-urea-Lys-2-Nal-Chx-Lys(DOTA)-Fluorescein]	1.11 ± 0.81	1.11 ± 0.94	–
-2.05 ± 0.02	6.77 ± 3.66	8.12 ± 3.59	O=C(O)CCC(NC(=O)NC(CCCCNC(=O)C(Cc1ccc2ccccc2c1)NC(=O)C1CCC(CNC(=O)C(CCCCNC(=O)CN2CCN(CC(=O)O)CCN(CC(=O)O)CCN(CC(=O)O)CC2)NC(=O)C(CCC(=O)O)NC(=S)Nc2ccc3c(c2)C(=O)OC32c3ccc(O)cc3Oc3cc(O)ccc32)CC1)C(=O)O)C(=O)O (stereo not drawn) [PSMA-925, Glu-urea-Lys-2-Nal-Chx-Lys(DOTA)-E1- Fluorescein]	2.67 ± 0.95	3.03 ± 2.17	–
-2.13 ± 0.03	7.16 ± 2.63	8.59 ± 2.57	O=C(O)CCC(NC(=O)NC(CCCCNC(=O)C(Cc1ccc2ccccc2c1)NC(=O)C1CCC(CNC(=O)C(CCCCNC(=O)CN2CCN(CC(=O)O)CCN(CC(=O)O)CCN(CC(=O)O)CC2)NC(=O)C(CCC(=O)O)NC(=O)C(CCC(=O)O)NC(=S)Nc2ccc3c(c2)C(=O)OC32c3ccc(O)cc3Oc3cc(O)ccc32)CC1)C(=O)O)C(=O)O (stereo not drawn) [PSMA-926, Glu-urea-Lys-2-Nal-Chx-Lys(DOTA)-E2-Fluorescein] ({FITC}-EEK(DOTA)[X1][2Nal]-X2; configuration not given here)	10.12 ± 4.85	11.86 ± 5.31	–
